Each block holds one compound with its values, some of them ahead of it.
What was measured:
CDK1 = test system: CDK1; set-up: method as in Kumar et al., 2019; details: Figure 1; ref Kumar et al., 2019; read-out: CDK-inhibitor IC50, CDK1; cited from earlier work
CDK2-A = test system: CDK2-A; set-up: method as in Kumar et al., 2019; details: Figure 1; ref Kumar et al., 2019; read-out: CDK-inhibitor IC50, CDK2-A; cited from earlier work
CDK4 = test system: CDK4; set-up: method as in Kumar et al., 2019; details: Figure 1; ref Kumar et al., 2019; read-out: CDK-inhibitor IC50, CDK4; cited from earlier work
CDK6 = test system: CDK6; set-up: method as in Kumar et al., 2019; details: Figure 1; ref Kumar et al., 2019; read-out: CDK-inhibitor IC50, CDK6; cited from earlier work
5-HT7R = target: 5-HT7R; set-up: method as in Kułaga et al., 2020; details: ref Kułaga et al., 2020; read-out: Ki, 5-HT7 receptors; cited from earlier work
[1] = test system: A549 (non-small cell lung cancer) cells; test: MTT cytotoxicity assay, A549; assay type: cell-based, human; details: Homo sapiens, A549, average ±SD of four independent experiments, read-out: IC50 ± STDEV, A549
Procedure: (§1) The parental MCF7 (breast cancer cell line), A549 (non-small cell lung cancer cell line), and human dermal fibroblast (HDF) (human dermal cell line) cells were obtained from the American Type Culture Collection (ATCC, Manassas, VA, United States). MCF7 and A549 cells were cultured in RPMI 1640 medium (EuroClone, Italy) supplemented with 10% (v/v) heat-inactivated fetal bovine serum (FBS) (EuroClone, Italy), 1% penicillin-streptomycin (EuroClone, Italy), and 2 mM L-glutamine.
(§2) The cytotoxic activity of the tested compounds were tested using MTT assay. […] Then, the cell viability was recored and IC50 values were calcualted. ([Mosmann, 1983]; [Nafie et al., 2020c]).

[2] = test system: MCF-7 (breast cancer) cells; test: MTT cytotoxicity assay, MCF-7; assay type: cell-based, human; details: Homo sapiens, MCF7, average ±SD of four independent experiments, read-out: IC50 ± STDEV, MCF-7
Procedure: as §1, §2

[3] = test system: HDFs (non-cancerous human dermal fibroblasts); test: MTT cytotoxicity assay, HDFs; assay type: cell-based; details: Homo sapiens, Fibroblast, non-cancerous cells, average ±SD of four independent experiments, read-out: IC50 ± STDEV, HDFs
Procedure: as §1, §2

EGFR = target: T1, EGFR (Homo sapiens, UniProt P00533); test: EGFR-TK kinase assay (ADP-Glo); assay type: biochemical
T1 construct: purchased Promega V9261
Procedure: EGFR-TK assay kit (ADP-Glo™ kinase assay, Cat No. V9261, Promega, United States) kinase assay was performed to evaluate the capacity of 3h, 3i, and 3j to inhibit EGFR.

CDK-2 = CDK-2 (Homo sapiens, UniProt P24941); test: CDK-2 enzyme inhibition; assay type: biochemical
A549 cells = test: Flow cytometry, Annexin V/PI staining; assay type: cell-based, human; details: A549, IC50 value, 48 h
Procedure: A549 cells were seeded into 6-well culture plates (3-5× 10^5 cells/well) and incubated overnight. […] Next, media supernatants and cells were collected and rinsed with ice-cold PBS. The cells were then suspended in the flow cytometry solutions and cells were stained with Annexin V/PI, and data was acquired using a Cytoflex FACS machine. Data were analyzed using cytExpert software. ([Hisham et al., 2019]; [Khodair et al., 2019]; [Nafie et al., 2020b]).

[4] = test system: apoptosis-related genes in A549 cells; test: Gene expression analysis by RT-PCR; assay type: cell-based, human; details: A549 treated at IC50; normalized to β-actin; 2^-ΔΔCT

T1 sequence (P00533 25-1210): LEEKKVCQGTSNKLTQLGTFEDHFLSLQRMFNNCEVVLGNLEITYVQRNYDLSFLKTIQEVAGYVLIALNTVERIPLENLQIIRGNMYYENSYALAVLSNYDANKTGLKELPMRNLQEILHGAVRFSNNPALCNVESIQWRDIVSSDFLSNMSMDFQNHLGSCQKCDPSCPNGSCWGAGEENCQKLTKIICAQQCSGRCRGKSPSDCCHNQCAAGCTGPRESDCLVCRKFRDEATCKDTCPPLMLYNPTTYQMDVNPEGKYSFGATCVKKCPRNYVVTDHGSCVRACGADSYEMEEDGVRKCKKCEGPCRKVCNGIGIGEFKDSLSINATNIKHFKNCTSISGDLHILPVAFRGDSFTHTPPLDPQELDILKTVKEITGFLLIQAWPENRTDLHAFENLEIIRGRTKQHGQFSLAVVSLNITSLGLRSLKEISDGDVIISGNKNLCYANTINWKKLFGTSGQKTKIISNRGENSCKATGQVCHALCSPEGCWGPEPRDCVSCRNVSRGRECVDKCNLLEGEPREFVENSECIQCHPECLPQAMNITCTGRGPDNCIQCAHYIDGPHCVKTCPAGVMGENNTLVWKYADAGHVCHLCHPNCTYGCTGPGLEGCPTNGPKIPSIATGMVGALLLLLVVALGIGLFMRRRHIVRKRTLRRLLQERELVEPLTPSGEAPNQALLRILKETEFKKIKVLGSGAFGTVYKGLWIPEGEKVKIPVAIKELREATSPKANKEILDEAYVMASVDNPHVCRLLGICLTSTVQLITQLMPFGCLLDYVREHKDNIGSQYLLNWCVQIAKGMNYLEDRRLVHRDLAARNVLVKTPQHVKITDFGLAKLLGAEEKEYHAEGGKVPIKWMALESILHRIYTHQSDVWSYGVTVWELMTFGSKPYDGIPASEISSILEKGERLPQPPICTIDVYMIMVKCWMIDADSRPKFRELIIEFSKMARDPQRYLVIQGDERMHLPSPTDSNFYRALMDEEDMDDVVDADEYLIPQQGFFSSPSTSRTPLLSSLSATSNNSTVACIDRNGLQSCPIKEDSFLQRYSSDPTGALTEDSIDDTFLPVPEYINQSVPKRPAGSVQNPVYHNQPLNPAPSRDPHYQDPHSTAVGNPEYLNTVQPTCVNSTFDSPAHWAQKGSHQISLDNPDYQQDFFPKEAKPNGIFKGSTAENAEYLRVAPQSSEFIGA

SMILES: OCCCNc1cc(-c2ncnc(Nc3cccc(Cl)c3)n2)ccn1 [XVI]
IC50 (CDK1): 21 nM
IC50 (CDK2-A): 7 nM
IC50 (CDK4): 308 nM
IC50 (CDK6): 356 nM

SMILES: OCCCNc1cncc(-c2ncnc(Nc3cccc(Cl)c3)n2)c1 [XVII]
IC50 (CDK1): 60 nM

SMILES: Nc1nc(NCCOc2ccccc2)nc(NCCc2c[nH]c3ccccc23)n1 [XIV]
Ki (5-HT7R): < 60 nM

SMILES: COc1nc(NCCc2c[nH]c3ccccc23)nc(Nc2ccc3[nH]ncc3c2)n1 [XV]
Ki (5-HT7R): < 60 nM

IC50 (EGFR; Mean ± SD of three independent replicates, read-out: EGFR inhibition IC50): 34.1 ± 1.58 nM
inhibition at 10 µM (EGFR; at 10 µM): 93.6%
IC50 (CDK-2; Mean ± SD of three independent replicates): 108 ± 3.12 nM
inhibition at 10 µM (CDK-2; at 10 µM): 91.4%
SMILES: Nc1cc(-c2c[nH]c3ccccc23)nn1-c1nc(Nc2ccc(Cl)cc2)nc(N2CCOCC2)n1 [Compound 3i, 4-(5-Amino-3-(1H-indol-3-yl)-1H-pyrazol-1-yl)-N-(4-chlorophenyl)-6-morpholino-1,3,5-triazin-2-amine]
IC50 [1]: 2400 ± 640 nM
IC50 [2]: 3.28 ± 0.16 µM
IC50 [3]: 3.78 ± 0.55 µM
cells undergoing late apoptosis (A549 cells; control 0.16%): 19.5%
cells undergoing early apoptosis (A549 cells; control 0.42%): 24.2%
total apoptosis (A549 cells; control 0.61%): 43.7%
total apoptotic cell death, fold vs control (A549 cells; control 0.61%): 71.6 fold
necrosis-mediated cell death (A549 cells; control 0.97%): 4.08%
necrosis-mediated cell death, fold increase (A549 cells; control 0.97%): 4.2 fold
Bax gene expression, fold of change [4]: 3.56 fold
Bcl-2 gene expression, fold change [4]: 0.23 fold
P53 gene expression, fold of change [4]: 4.55 fold
caspase 3 gene expression, fold of change [4]: 6.96 fold
caspase 8 gene expression, fold of change [4]: 1.49 fold
caspase 9 gene expression, fold of change [4]: 7 fold

— paper PMC9732672, “Pyrazolyl-s-triazine with indole motif as a novel of epidermal growth factor receptor/cyclin-dependent kinase 2 dual inhibitors” (Frontiers in Chemistry, 2022)
